Reference: US11008292B2, “FGFR4 inhibitor and preparation method and use thereof” (GUANGDONG ZHONGSHENG PHARMACEUTICAL CO., LTD, priority 2016, dated 2021)
pIC50: −log10 of the molar value. Read-outs that look alike come from different tables or passages of the source.

Legend:
FGFR4 kinases = target: T1, FGFR4 kinases (Homo sapiens, UniProt P22455); experiment: In vitro enzyme activity test, Z′-LYTE Assay, FGFR4 enzymatic reaction; format: biochemical; conditions: for pIC50: Z′-LYTE detection, 150 μM ATP
T1 construct: purchased Life technology
T1 sequence (P22455 22-802): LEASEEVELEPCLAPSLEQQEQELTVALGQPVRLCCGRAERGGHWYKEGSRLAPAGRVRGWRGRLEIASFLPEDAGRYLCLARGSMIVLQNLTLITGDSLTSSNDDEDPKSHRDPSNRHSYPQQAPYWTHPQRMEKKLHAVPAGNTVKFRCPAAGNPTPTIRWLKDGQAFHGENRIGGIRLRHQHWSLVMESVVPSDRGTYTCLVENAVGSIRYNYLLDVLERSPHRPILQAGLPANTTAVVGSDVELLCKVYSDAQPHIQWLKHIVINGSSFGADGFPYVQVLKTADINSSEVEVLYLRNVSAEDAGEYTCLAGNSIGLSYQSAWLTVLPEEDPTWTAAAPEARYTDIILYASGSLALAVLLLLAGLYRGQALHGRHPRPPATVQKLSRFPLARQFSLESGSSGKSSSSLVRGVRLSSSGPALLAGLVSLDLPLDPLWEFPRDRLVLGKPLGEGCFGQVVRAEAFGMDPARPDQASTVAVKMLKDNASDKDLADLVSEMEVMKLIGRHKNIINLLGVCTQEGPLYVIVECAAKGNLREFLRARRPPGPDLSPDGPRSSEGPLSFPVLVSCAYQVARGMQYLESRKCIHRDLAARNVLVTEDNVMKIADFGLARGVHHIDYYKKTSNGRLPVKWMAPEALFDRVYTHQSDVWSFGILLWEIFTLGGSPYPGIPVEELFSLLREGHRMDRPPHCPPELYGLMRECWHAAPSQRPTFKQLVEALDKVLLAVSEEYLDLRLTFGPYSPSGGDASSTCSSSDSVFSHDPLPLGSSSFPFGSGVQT
Experimental: (§1) The inhibitory effects of the compounds on FGFR4 kinases were assessed by detecting the enzymatic activities through Z′-LYTE® Assay, with the IC50 value of the compound as the indicator. This activity test was performed by Life technology.
(§2) The test compounds were diluted in a concentration gradient of 3-times, the final concentrations were 10 concentrations ranging from 10 μM to 0.5 nM, with double hole for each concentration; the content of DMSO in the detection reaction was 1%.
FGFR4 Enzymatic Reaction:
[…] The detection plate was Bar-coded Corning, low volume NBS, black 384-well plate, reaction conducted at room temperature for 60 minutes, and the reaction system was 10μμL.
(§3) To the kinase reaction solution was added 5 μL Development reagent B (1:64) to stop the reaction and incubated at 23° C. for 60 minutes, reading the plate with Envision instrument.
(§4) Data was transformed into the phosphorylation rate and the inhibitory rate by curve fitting with Model 205 in XLFIT (iDBS) to obtain the IC50 data of the compounds. It was set as 0% if the bottom of the curve was not in the range of −20% to 20%; otherwise it was set as 100% if the top of the curve was not in the range of 70% to 130%.

FGFR1 protein kinase = target: T2, FGFR1 protein kinase (Homo sapiens, UniProt P11362); experiment: In vitro enzyme activity test, Z′-LYTE Assay, FGFR1 enzymatic reaction; format: biochemical; conditions: Z′-LYTE detection; 25 μM ATP
T2 construct: purchased Life technology
T2 sequence (P11362 22-822): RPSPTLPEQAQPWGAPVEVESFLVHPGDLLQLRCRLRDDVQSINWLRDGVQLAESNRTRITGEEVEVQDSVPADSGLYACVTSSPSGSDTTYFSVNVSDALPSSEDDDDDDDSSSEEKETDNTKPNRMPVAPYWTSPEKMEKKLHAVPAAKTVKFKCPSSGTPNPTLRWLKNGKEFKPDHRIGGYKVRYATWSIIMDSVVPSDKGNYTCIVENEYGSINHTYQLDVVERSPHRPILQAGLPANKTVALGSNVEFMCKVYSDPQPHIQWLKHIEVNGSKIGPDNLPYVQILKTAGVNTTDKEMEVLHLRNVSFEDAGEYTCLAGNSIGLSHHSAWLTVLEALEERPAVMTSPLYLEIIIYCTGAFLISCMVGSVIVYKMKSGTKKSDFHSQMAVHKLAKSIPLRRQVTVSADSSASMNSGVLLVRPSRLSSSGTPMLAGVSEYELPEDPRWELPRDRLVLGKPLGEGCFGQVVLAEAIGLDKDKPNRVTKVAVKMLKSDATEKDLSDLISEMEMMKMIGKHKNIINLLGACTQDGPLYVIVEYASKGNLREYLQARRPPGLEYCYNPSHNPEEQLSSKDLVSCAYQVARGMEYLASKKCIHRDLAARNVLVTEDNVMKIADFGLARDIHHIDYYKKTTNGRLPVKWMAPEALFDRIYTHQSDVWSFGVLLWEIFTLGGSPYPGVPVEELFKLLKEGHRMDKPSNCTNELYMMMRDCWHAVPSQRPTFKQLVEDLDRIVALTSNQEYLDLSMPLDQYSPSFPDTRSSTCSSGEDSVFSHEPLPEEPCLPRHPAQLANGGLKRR
Experimental: as §1, §2
FGFR1 Enzymatic Reaction:
1 nM FGFR1 protein kinase, 2 μM Tyr4 peptide, 25 μM ATP, 50 mM HEPES (pH 7.5), 10 mM MgCl2, 1 mM EGTA, 0.01% BRIJ-35, 2 mM MnCl2, 1 mM DTT. The detection plate was Black Proxiplate 384-Plus plate (PerkinElmer), reaction conducted at room temperature for 60 minutes, and the reaction system was 10μμL.
as §3, §4

[1] = Pharmacokinetic evaluation in mice (IV and oral gavage); format: in vivo, female Balb/c nude mice; conditions: female Balb/c nude mice; for half-life: read-out: T1/2 (elimination half-life) (converted); for Vd: read-out: Vdss (steady-state apparent volume of distribution); for F (bioavailability; oral absorption ratio): PO gavage 10 mg/kg vs IV 2 mg/kg; for clearance: read-out: Cl (plasma clearance)
Experimental: […] The test compound suspended in the corresponding solvent at 1 mg/ml was administered by gavage to female Balb/c nude mice (fasted overnight, at an age of 7-9 weeks), with a dosage of 10 mg/kg. Two groups of animals were both blood sampled about 30 μL from jugular vein or tail vein at 0.0833, 0.25, 0.5, 1.0, 2.0, 4.0, 6.0, 8.0 and 24 h post-administration, which was placed into an anticoagulant tube charged with EDTA-K2, and plasma was separated by centrifugation. Plasma concentrations were determined by LC-MS/MS process using WinNonlin™ Version 6.3 (Pharsight, Mountain View, Calif.) pharmacokinetic software, calculating the related pharmacokinetic parameters with a linear logarithmic trapezoidal method for […] models.

[2] = mouse, plasma, IV tail vein 0.2 mg/kg
[3] = mouse, plasma, IV tail vein 2 mg/kg

C=CC(=O)Nc1cc(Cl)cc(F)c1Nc1ccc(/C=C(\F)c2c(Cl)c(OC)cc(OC)c2Cl)cn1 [Example 28]
pIC50 (FGFR4 kinases): 6.58
pIC50 (FGFR1 protein kinase): 5.49

C=CC(=O)Nc1ccc(OCCN2CCN(C)CC2)c(C)c1Nc1ncc(/C=C(\F)c2c(Cl)c(OC)cc(OC)c2Cl)cn1 [Example 14]
pIC50 (FGFR4 kinases): 7.75
pIC50 (FGFR1 protein kinase): 6.74

C=CC(=O)Nc1cccc(Cl)c1Nc1ccc(/C=C(\F)c2c(Cl)c(OC)cc(OC)c2Cl)cn1 [Example 23]
pIC50 (FGFR4 kinases): 6.41

C=CC(=O)N[C@H]1COC[C@H]1Nc1ncc(OCc2c(F)c(OC)cc(OC)c2F)cn1 [Control example 7]
Cl (plasma clearance) ([1]; IV tail vein 0.2 mg/kg): 65 mL/min/kg
AUC(0-t) [1, 2]: 0.113 µM·h
half-life [1, 2]: 6.54 min
Vd [1, 2]: 0.581 L/kg
bioavailability ([1]; mouse, plasma, PO gavage 1.0 mg/kg vs IV 0.2 mg/kg, read-out: F (bioavailability)): 0%

C=CC(=O)Nc1cc(F)cc(C)c1Nc1ccc(/C=C(\F)c2c(Cl)c(OC)cc(OC)c2Cl)cn1 [Example 29]
pIC50 (FGFR4 kinases): 6.57

C=CC(=O)Nc1cccc(F)c1Nc1ccc(/C(F)=C/c2c(Cl)c(OC)cc(OC)c2Cl)cn1 [Example 6]
pIC50 (FGFR4 kinases): 6.91
pIC50 (FGFR1 protein kinase): < 5.00

C=CC(=O)NC1CN(C(C)=O)CC1Nc1ncc(/C=C(\F)c2c(Cl)c(OC)cc(OC)c2Cl)cn1 (centres unmarked) [Example 34]
pIC50 (FGFR4 kinases): 6.70

C=CC(=O)Nc1cc(N2CCN(CC)CC2)cc(C)c1Nc1ncc(/C=C(\F)c2c(Cl)c(OC)cc(OC)c2Cl)cn1 [Example 15]
pIC50 (FGFR4 kinases): 8.80
FGFR4 inhibitory activity enhancement vs control example (FGFR4 kinases; ratio to control example 2): ~9 times
pIC50 (FGFR1 protein kinase): 6.09

C=CC(=O)N[C@H]1COC[C@H]1Nc1ncc(/C=C/c2c(Cl)c(OC)cc(OC)c2Cl)cn1 [Control example 3, reference compound]
pIC50 (FGFR4 kinases): 6.39

C=CC(=O)N[C@H]1CCOC[C@H]1Nc1ncc(OCc2c(F)c(OC)cc(OC)c2F)cn1 [Control example 4]
F (bioavailability; oral absorption ratio) [1]: 0%
AUC(0-t) [1, 3]: 0.958 µM·h
clearance [1, 3]: 77.1 mL/min/kg
half-life [1, 3]: 6.84 min
Vd [1, 3]: 0.533 L/kg

C=CC(=O)Nc1cc(N2CCN(CC)CC2)cc(C)c1Nc1ncc(/C(F)=C/c2c(Cl)c(OC)cc(OC)c2Cl)cn1 [Example 11]
pIC50 (FGFR4 kinases): 7.70
pIC50 (FGFR1 protein kinase): 5.30

C=CC(=O)Nc1cccc(F)c1Nc1ccc(/C=C(\F)c2c(Cl)c(OC)cc(OC)c2Cl)cn1 [Example 18]
pIC50 (FGFR4 kinases): 6.98
pIC50 (FGFR1 protein kinase): 5.72

C=CC(=O)Nc1cccc(C)c1Nc1ccc(/C(F)=C(\C)c2c(Cl)c(OC)cc(OC)c2Cl)cn1 [Example 10]
pIC50 (FGFR4 kinases): 6.26

C=CC(=O)N[C@H]1COC[C@H]1Nc1ncc(OCc2c(Cl)c(OC)cc(OC)c2Cl)cn1 [Control example 8]
F (bioavailability; oral absorption ratio) [1]: 12.3%
AUC(0-t) [1, 3]: 1.8 µM·h
clearance [1, 3]: 39.7 mL/min/kg
half-life [1, 3]: 9.24 min
Vd [1, 3]: 0.407 L/kg
AUC(0-t) ([1]; mouse, plasma, PO gavage 10 mg/kg): 1.1 µM·h
Cmax ([1]; mouse, plasma, PO gavage 10 mg/kg, read-out: Cmax (peak concentration)): 2710 nM
Tmax ([1]; mouse, plasma, PO gavage 10 mg/kg, read-out: Tmax (time to peak)): 15 min

C=CC(=O)Nc1cccc(C)c1Nc1ncc(/C(F)=C/c2c(Cl)c(OC)cc(OC)c2Cl)cn1 [Example 2]
pIC50 (FGFR4 kinases): 7.08
pIC50 (FGFR1 protein kinase): < 5.00

C=CC(=O)Nc1cccc(C)c1Nc1cnc(/C(F)=C/c2c(Cl)c(OC)cc(OC)c2Cl)cn1 [Example 5]
pIC50 (FGFR4 kinases): 6.69

C=CC(=O)N[C@@H]1COC[C@@H]1Nc1ncc(/C(F)=C/c2c(Cl)c(OC)cc(OC)c2Cl)cn1 [Example 32]
pIC50 (FGFR4 kinases): 6.44

C=CC(=O)Nc1cccc(C)c1Nc1ncc(OCc2c(Cl)c(OC)cc(OC)c2Cl)cn1 [Control example 5]
F (bioavailability; oral absorption ratio) [1]: 0%
AUC(0-t) [1, 3]: 0.528 µM·h
clearance [1, 3]: 127 mL/min/kg
half-life [1, 3]: 13.3 min
Vd [1, 3]: 1.28 L/kg

C=CC(=O)Nc1cc(F)cc(C)c1Nc1ncc(/C=C(\F)c2c(Cl)c(OC)cc(OC)c2Cl)cn1 [Example 30]
pIC50 (FGFR4 kinases): 6.62

C=CC(=O)Nc1cc(N2CCN(C(C)=O)CC2)cc(C)c1Nc1ncc(/C=C(\F)c2c(Cl)c(OC)cc(OC)c2Cl)cn1 [Example 26]
pIC50 (FGFR4 kinases): 7.89

C=CC(=O)Nc1cc(F)c(F)cc1Nc1ccc(/C=C(\F)c2c(Cl)c(OC)cc(OC)c2Cl)cn1 [Example 22]
pIC50 (FGFR4 kinases): 6.24

C=CC(=O)Nc1cccc(C)c1Nc1ncc(OCc2c(F)c(OC)cc(OC)c2F)cn1 [Control example 6]
F (bioavailability; oral absorption ratio) [1]: 0%
AUC(0-t) [1, 3]: 0.388 µM·h
clearance [1, 3]: 186 mL/min/kg
half-life [1, 3]: 14.1 min
Vd [1, 3]: 2.44 L/kg
